Source: PMC4448982, “LP-925219 maximizes urinary glucose excretion in mice by inhibiting both renal SGLT1 and SGLT2” (Pharmacology Research & Perspectives, 2015)

Assays:
renal SGLT1 and SGLT2 = target: T1, renal SGLT1 and SGLT2 (Mus musculus, UniProt Q8C3K6); test: Metabolic cage study, 24-h urinary glucose excretion; format: in vivo; settings: SGLT2 KO mice
T1 construct: from tissue; host or cells: kidney of living WT, SGLT1 KO, SGLT2 KO and DKO mice (C57BL/6J-129 SvEv hybrid)
T1 sequence (Q8C3K6 1-665): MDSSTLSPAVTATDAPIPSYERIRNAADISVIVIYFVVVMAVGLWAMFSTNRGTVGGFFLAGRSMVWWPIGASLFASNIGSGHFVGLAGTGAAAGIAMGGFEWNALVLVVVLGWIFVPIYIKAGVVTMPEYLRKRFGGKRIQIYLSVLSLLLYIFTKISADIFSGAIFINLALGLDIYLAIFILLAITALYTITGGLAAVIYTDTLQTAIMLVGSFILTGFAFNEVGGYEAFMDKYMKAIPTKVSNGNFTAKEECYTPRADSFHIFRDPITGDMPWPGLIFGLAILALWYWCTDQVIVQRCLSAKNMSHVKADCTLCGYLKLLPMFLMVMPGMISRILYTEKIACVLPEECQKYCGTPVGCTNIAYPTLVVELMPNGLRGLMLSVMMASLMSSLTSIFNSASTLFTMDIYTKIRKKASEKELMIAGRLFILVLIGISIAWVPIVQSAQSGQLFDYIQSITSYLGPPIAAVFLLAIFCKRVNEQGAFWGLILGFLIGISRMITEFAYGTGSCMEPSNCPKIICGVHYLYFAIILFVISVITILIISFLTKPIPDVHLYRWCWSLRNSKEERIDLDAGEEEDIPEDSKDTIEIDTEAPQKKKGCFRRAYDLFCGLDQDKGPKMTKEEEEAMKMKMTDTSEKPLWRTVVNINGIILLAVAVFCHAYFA
Description: Mice were individually housed in Nalgene Metabolic Cages for Mice (product MTB-0311), and 24-h urine collections were made to determine 24-h UGE, as described previously (Powell et al. [2013a]). Some mice received a single dose of either LP-925219 or vehicle by oral gavage at 8 am immediately prior to initiating collection of 24-h urine samples; in addition, some mice received two doses of either vehicle or 60 mg/kg LP-925219 by oral gavage, with the first dose given at 8 am and the second dose given at 6 pm, nearly midway through the collection of the 24-h urine sample.
Figure 5 UGE values in mice treated with a single dose of LP-925219. After DKO, S2 KO, S1 KO, and WT littermate mice received, by a single oral gavage at 8 am, either vehicle (Veh) or LP-925219 at a dose of (A) 1 mg/kg; (B) 10 mg/kg; or (C) 60 mg/kg, the mice were placed in metabolic cages and their urine was collected over the next 24 h and analyzed for total glucose. N = 5–11 mice/group. UGE < DKO UGE: *P < 0.05, **P < 0.01, ***P < 0.001; LP-925219 UGE > Veh UGE for the same group, ^^^P < 0.001. UGE, urinary glucose excretion.
Figure 6 UGE values in mice treated with two doses of 60 mg/kg LP-925219. DKO, S2 KO, S1 KO, and WT littermate mice received, by oral gavage at 8 am and then again at 6 pm, either vehicle (Veh) or LP-925219 at a dose of 60 mg/kg. The mice were placed in metabolic cages after the first gavage and their urine was collected over the next 24 h and analyzed for total glucose. N = 6–11 mice/group. UGE < DKO UGE, ***P < 0.001; LP-925219 UGE > Veh UGE for the same group, ^^^P < 0.001. UGE, urinary glucose excretion.

human SGLT2 = target: T2, human SGLT2 (Homo sapiens, UniProt P31639); test: Compound washout study, cells expressing human SGLT2
T2 sequence (P31639 1-672): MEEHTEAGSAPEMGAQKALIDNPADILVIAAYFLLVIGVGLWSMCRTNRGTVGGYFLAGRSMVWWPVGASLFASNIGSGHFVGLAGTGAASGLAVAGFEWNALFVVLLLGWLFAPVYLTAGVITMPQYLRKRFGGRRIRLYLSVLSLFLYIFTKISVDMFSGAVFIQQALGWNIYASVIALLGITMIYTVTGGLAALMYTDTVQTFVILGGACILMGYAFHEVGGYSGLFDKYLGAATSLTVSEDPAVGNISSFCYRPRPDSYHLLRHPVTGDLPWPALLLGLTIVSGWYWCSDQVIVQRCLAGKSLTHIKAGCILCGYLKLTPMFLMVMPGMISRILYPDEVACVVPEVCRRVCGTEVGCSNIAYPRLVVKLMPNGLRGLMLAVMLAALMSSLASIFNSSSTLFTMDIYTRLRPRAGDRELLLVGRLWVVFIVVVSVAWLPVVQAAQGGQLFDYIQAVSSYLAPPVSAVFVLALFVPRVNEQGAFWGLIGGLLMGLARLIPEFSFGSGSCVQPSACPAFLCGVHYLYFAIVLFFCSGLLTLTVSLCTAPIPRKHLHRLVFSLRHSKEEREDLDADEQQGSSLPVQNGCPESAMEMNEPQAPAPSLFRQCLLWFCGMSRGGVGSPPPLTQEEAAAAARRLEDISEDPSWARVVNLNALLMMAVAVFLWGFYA
Description: Cells expressing human SGLT2 were studied using the above protocol. […] Cells expressing human SGLT2 were studied using the above protocol.

Compound: COc1ccc(Cc2cc([C@@H]3O[C@H](SC)[C@@H](O)[C@H](O)[C@H]3O)ccc2Cl)cc1 [LP-925219]
- 24-h UGE (renal SGLT1 and SGLT2; single oral dose 60 mg/kg, maximal = vehicle-treated DKO): 80 ± 18 % of maximal
- 24-h UGE (renal SGLT1 and SGLT2; single oral dose 1 or 10 mg/kg, vs vehicle): did not show a significant increase
- 24-h UGE (renal SGLT1 and SGLT2; two oral 60 mg/kg doses (8 am, 6 pm)): 89 ± 16 % of maximal
- IC50 (human SGLT2; no wash protocol): 2.2 nM
- IC50 (human SGLT2; washout protocol, 18-20 h recovery after 30 min treatment): 6.8 nM
